Source: US9701792B2, “Composite compositions and methods of preparing and using same” (THE REGENTS OF THE UNIVERSITY OF COLORADO, A BODY CORPORATE, priority 2014, dated 2017)

Assay: Volumetric shrinkage during photo-CuAAC reaction
Assay type: physicochemical
Details: monomer (2) and 4-pentyl-1-ol in chloroform; azide/alkyne to CuCl2/PMDETA/I819 50:50:1:1
Protocol: The volumetric shrinkage behavior during the photo-CuAAC reaction was measured using monomer (2) in FIGS. 3 and 4-pentyl-1-ol in chloroform (molar ratio of azide/alkyne to CuCl2/PMDETA/I819 as 50:50:1:1, the same as the bulk model system). […] In certain embodiments, the total shrinkage is lower in the CuAAC polymerization because the formed triazole concentration is less than the required methacrylate concentration. With appropriate fillers, the composite shrinkage may be reduced further.

molar volume change per triazole formed: 22.2 mL/mol
SMILES: CC(C)(c1ccc(OCC(O)CN=[N+]=[N-])cc1)c1ccc(OCC(O)CN=[N+]=[N-])cc1 (stereo not shown) [monomer (2), bisphenol A di(3-azido-2-hydroxypropan-1-ol) ether]
